Results on three compounds are retold here after paper PMC11087509, “Multimodal binding and inhibition of bacterial ribosomes by the antimicrobial peptides Api137 and Api88” (Nature Communications, 2024).

“Also recorded” adds a separate entry of the source. Where a SMILES comes first, the peptide text is derived from it. The star is where a group is joined. Orn(α-tetramethylguanidino) = CN(C)C(=N[C@@H](CCCN)C(=O)*)N(C)C

Experiment [1] deals with T1, purified 70S ribosome (Escherichia coli, UniProt P0A7M6+P0ADZ0+P60723+P61175).
T1 construct: obtain highly pure E. coli 70S ribosomes; made in house; host or cells: E. coli BW25113 (native ribosomes isolated, not recombinant)
Put plainly: Fluorescence polarization competition with cf-Api88 on purified 70S ribosome. The format is binding, E. coli. As to conditions: competition with cf-Api88, pure 70S ribosome; 28 °C. The procedure:
(§1) E. coli BW25113 were grown in LB medium and harvested by centrifugation (5000× g, 15 min, 4 °C) at an OD600 of 3-4. Cell pellets were washed in ribosome preparation buffer (20 mmol/L HEPES-KOH, 6 mmol/L MgCl2, 30 mmol/L NH4Cl, pH 7.6, 4 °C), centrifuged (4100× g, 30 min, 4 °C), and suspended in ribosome preparation buffer ([…]) containing freshly added ß-mercaptoethanol (4 mmol/L). Lysozyme was added to the resuspended cells and incubated for 30 min on ice. Cells were disrupted in six cycles using a FastPrep-24^TM 5 G instrument (MP Biomedicals, Eschwege, Germany) with the BigPrep 50 mL setting (40 s, 4.0 m/s) and one-minute incubation on ice between cycles. […]
(§2) Ribosomes were purified by anion exchange chromatography using an Äkta Pure System (GE Healthcare, Freiburg, Germany) and a CIM®QA column (8 mL, 2 µm channels; Sartorius Stedim Biotech GmbH, Göttingen, Germany). […] The ribosome concentration was estimated by recording the absorbance at 260 nm (considering that 15 AU corresponds to a ribosome concentration of 1 g/L). […]
Inhibition constants (Ki) were determined for the pure 70S ribosome using cf-labeled and unlabeled peptides in the ribosome preparation buffer. […] Fluorescence polarization was measured on a […]^TM microplate reader in the top reading position (λexc = 485 nm, λem = 535 nm). […] The Ki values were calculated as described by Mathias and Jung[39].
On the technique in general: Polarisation of emitted light reports the rotation of a fluorescent probe.

A further experiment deals with recombinant TF. As to conditions: fluorescence polarization; cited from earlier work. The source says: Binding sites two and three are close to uL23 and uL29, which is also supported by Api88(Y7B) cross-links. These ribosomal proteins are located adjacent to the PET exit and are binding hubs for the molecular chaperone trigger factor (TF)[34] and the signal recognition particle (SRP), a universally conserved and essential cellular machinery that directs proteins destined for membrane integration to the plasma membrane[35],[36]. This co-translational targeting is initiated by a hydrophobic signal sequence in the nascent protein chain recognized by SRP as it exits the PET. It is appealing to hypo ...

A further experiment addresses DnaK. As to conditions: read-out: Kd (DnaK); peer review response; cited from earlier work. From the text: We now introduce trigger factor in line 446 as “…molecular chaperone…” In addition, we hypothesize that Api88 binds to the ribosome within the contact area of TF, which interacts with uL23 and uL29, two proteins we report here as cross-linked to Api88.
Experiment [2] concerns the target T1, purified 70S ribosome. Put plainly: Fluorescence polarization binding, purified 70S ribosome. Set-up: species or system E. coli. How it is done:
as §1, §2
Dissociation constants (Kd) were determined using purified 70S ribosome, 50S or 30S subunit and cf-labeled peptides in ribosome preparation buffer. […] Fluorescence polarization was measured on a […]^TM microplate reader (Beckman Coulter, Krefeld, Germany) in the top reading position (λexc = 485 nm, λem = 535 nm). […]

A further experiment addresses T2, 50S subunit (Escherichia coli, UniProt P0A7M6+P0ADZ0+P60723+P61175).
T2 construct: Ribosomes were isolated from the E. coli strain MRE600; made in house; native subunits isolated in house
Put plainly: Fluorescence polarization binding, 50S subunit. Set-up: species or system E. coli. The procedure: Several hundred grams of log-phase cells were commercially produced and purchased. Cells were washed in buffer A (20 mmol/L HEPES (pH 7.6), 6 mmol/L MgAc2, 30 mmol/L AcOK, 4 mmol/L ß-mercaptoethanol) and lysed in an M-110L microfluidizer (Microfluidics) at 17,000 psi and 4 °C. Cell debris was removed by low-speed centrifugation (15,000× g, 10 min, 4 °C) to obtain S30 lysate. Crude ribosomes, mostly containing 70S ribosomes, were pelleted by ultracentrifugation (40,000× g, 17 h, 4 °C) and resuspended in buffer A. The 70S ribosomes were separated from 30S and 50S subunits by zonal ultracentrifugation (Beckman Ti-15; 6–40% sucrose gradient in buffer A, 44,000× g, 16 h, 4 °C). The 70S-containing fractions were collected, and the ribosomes were sedimented by ultracentrifugation (40,000× g, 17 h, 4 °C). Since these 70S ribosomes still contained tRNAs and mRNA, they were resuspended in buffer B (20 mmol/L HEPES (pH 7.6), 1 mmol/L MgAc2, 0.2 mol/L NH4Ac, 4 mmol/L ß-mercaptoethanol), which allows for dissociation into 30S and 50S subunits, and subjected to a second zonal centrifugation (Beckman Ti-15, 44,000× g, 16 h, 4 °C), but this time in a 6–40% sucrose gradient prepared in buffer B. Fractions containing 30S and 50S subunits were collected, sedimented by ultracentrifugation (40,000× g, 17 h, 4 °C), resuspended in buffer A, aliquoted, shock-frozen in liquid nitrogen, and stored at −80 °C.
Dissociation constants (Kd) were determined using purified 70S ribosome, 50S or 30S subunit and cf-labeled peptides in ribosome preparation buffer. Briefly, black 384-well plates (flat bottom, 781209, Greiner Bio-One GmbH) were blocked with casein (0.5%, w/v) in PBS containing 0.05% (v/v) Tween 20 at 4 °C overnight and washed three times with phosphate buffer. A 2-fold dilution series (22 steps) of pure 70S ribosome, 50S or 30S subunit (10 μL per well) in ribosome preparation buffer was prepared in a black 384-well plate. The cf-labeled peptide was dissolved in ribosome preparation buffer (10 μL, 40 nmol/L), added to each well, centrifuged (500 x g, 2 min), and incubated at 28 ± 1 °C for 90 min. Fluorescence polarization was measured on a […]^TM microplate reader (Beckman Coulter, Krefeld, Germany) in the top reading position (λexc = 485 nm, λem = 535 nm). Data were fitted to a nonlinear dose-response logistic transition equation [y = y0 + a/(1 + (x/x0)b)] using the Levenberg-Marquardt algorithm, with Kd represented by the x0 coefficients (GraphPad Prism for Windows v. 10.1.2, San Diego, CA, USA).

For the compound `CC[C@H]1OC(=O)[C@H](C)[C@@H](O[C@H]2C[C@@](C)(OC)[C@@H](O)[C@H](C)O2)[C@H](C)[C@@H](O[C@@H]2O[C@H](C)C[C@H](N(C)C)[C@H]2O)[C@](C)(O)C[C@@H](C)C(=O)[C@H](C)[C@@H](O)[C@]1(C)O` [erythromycin], at purified 70S ribosome [1], the “displacement of cf-Api88 / decrease in fluorescence polarization” value is “significantly competing with the binding of cf-Api88; also recorded: reduced the fluorescence polarization to a much lesser extent”.
Regarding “GNNRPVYIPQPRPPHPRL [apidaecin 1b, reference compound]”, the figures for the Kd on recombinant TF and at DnaK were over 100000 nM and about 5000 nM, respectively.
Turning to `CC[C@H](C)[C@H](NC(=O)[C@H](Cc1ccc(O)cc1)NC(=O)[C@@H](NC(=O)[C@@H]1CCCN1C(=O)[C@H](CCCNC(=N)N)NC(=O)[C@H](CC(N)=O)NC(=O)[C@H](CC(N)=O)NC(=O)[C@H](CCCN)N=C(N(C)C)N(C)C)C(C)C)C(=O)N1CCC[C@H]1C(=O)N[C@@H](CCCNC(=N)N)C(=O)N1CCC[C@H]1C(=O)N[C@@H](CCCNC(=N)N)C(=O)N1CCC[C@H]1C(=O)N1CCC[C@H]1C(=O)N[C@@H](Cc1c[nH]cn1)C(=O)N1CCC[C@H]1C(=O)N[C@@H](CCCNC(=N)N)C(=O)N[C@@H](CC(C)C)C(N)=O` [Api88] ({Orn(α-tetramethylguanidino)}-NNRPVYIPRPRPPHPRL-NH2), the Kd on purified 70S ribosome [2] (apparent Kd, cf-labeled PrAMP (10 μL, 40 nmol/L), ribosome preparation buffer (20 mmol/L HEPES-KOH, 6 mmol/L MgCl2, 30 mmol/L NH4Cl, pH 7.6), 28 °C, 90 min, mean of triplicates, read-out: Kd 70S ribosome pure) is 1820 ± 80 nM; on 50S subunit (apparent Kd, cf-labeled PrAMP (10 μL, 40 nmol/L), ribosome preparation buffer pH 7.6, 28 °C, 90 min, mean of triplicates) it was 580 ± 50 nM. The “higher affinity of Api88 than Api137” value at purified 70S ribosome [2] (purified 70S ribosomes and 50S subunits) was 2-3 fold. For the same compound, the “Kd for 50S subunit lower than for 70S ribosome” value at 50S subunit (ratio 70S / 50S, cf-labeled) is listed as “threefold”.
